Data: US20240300935A1, “Nitrogen Oxide Donors of Beraprost Derivative and the Pharmaceutical Compositions with the Use Thereof” (GUANGZHOU KEMROCMED CO., LTD., priority 2021, published 2024)

Tests used:
[1] = In vitro NO release test (Griess method); conditions: 200 μM test compound solution mixed with 200 μM L-cysteine solution, 37° C.
Procedure: NO was transiently oxidized in aqueous solution using released NO by Griess' method, NO^2− And Griess reagent form a complex, which has strong UV uptake at 540 nm to determine the amount of NO released by the compound. • 1) Preparation of solution: blank solution: 10 mL DMSO and 190 m L PBS mixed; G riess Reagent: sulfonamide (4.0 g), N-(1-naphthalyl) ethylenediamine dihydrochloride (0.2 g) and 10 mL 85% H3PO4 dissolved in 90 mL of distilled water, Blow until clear solution; L-cysteine solution: after accurate weighing of L-cysteine, Add a certain amount of PBS, Prepare a weighed 200 μM solution; Test compound solution: the exact weighing of the test compound, Dissolved in D MSO and diluted to a concentration of 1 mM, Then, when diluted in PBS, To a concentration of 200 μM.
2) Formulation of standard curve equation: prepare sodium nitrite solution concentration: 0 ,0 , 1, 3, 6, 12.5, 25, 50, 100 μmol/L, 150 μL of each concentration, add 50 μL of Griess reagent mix, incubated in 37° C. constant temperature shaker for 30 min, the plate reader measured each tube absorbance at 540 nm, after subtracting the blank solution reading, the standard curve equation . . . 78.56.13.25 • 3) Test compound test: mix 2 mL of the test compound solution and L-cysteine solution, incubate in 37° C. constant temperature shakers for 120 min, take 150 μL of each mixture, add 50 μL of Griess reagent, then incubate in 37° C. constant temperature shaker for 30 min, the microplate measured each tube absorbance at 540 nm, then subtract the blank solution reading and substitute the value into the standard curve equation to obtain NO release.

[2] = system: postmenopausal osteoporosis mouse model; experiment: Therapeutic effect of osteoporosis, postmenopausal osteoporosis mouse model (ovariectomy); type: in vivo; parameters: Tb · N: unit not given here
Description: • 1) Test materials; 1. Animal clean grade C57BL/6 strain, 8-10 weeks old not pregnant females were purchased from Yangzhou University. 2. Main reagents and instruments, Bujiale (estradiol valerate tablets, Bayer); mouse osteocalcin (osteocalcin, OC) enzyme-linked immunotest kit, alkaline phosphatase (alkaline phosphatase, ALP) test kit, tartrate acid phosphatase (StrACP) test kit (all the above kits were purchased in Nanjing). Dual-energy X-ray bone densitometer (HOLOGIC); ECLIPSE 50i microscope (Nikon); MUTISKANMK3 microplate reader (Thermo); tissue slicing equipment (including KD-TS3D1 biological tissue automatic dehydrmachine (Zhejiang Cody), TB-718 biological tissue automatic embedding machine (Hubei), R138 rotary slicer (Hubei), TK-212 automatic constant temperature drift instrument (Hubei), TK-213 automatic constant temperature dryer (Hubei), etc.). • 2) Test method: A animals were grouped, and the random method divided the female mice into 4 groups, namely, sham operation group, model group, positive drug group, and test drug group. B Preparation of postmenopausal osteoporosis mouse model, chloral hydrate anesthesia and removed the ovaries in the lying position. In the sham group, only the same volume of fat tissue near the ovaries was removed. Vaginal smear was performed on days 4-8 after ovariectomy to determine if the ovariectomy was complete. Method of c, on the third day after the operation, positive control drug (0.1 mL/10 g gavage), equal volume of 0.9%sodium chloride solution in sham group and model group, continuous gavage for 28 d. Test ResResults test: Blood and bone tissue samples after day 28. The following indicators were tested: (1) determination of bone density, lumbar L4-6 measurement of bone density by double energy X-ray bone density instrument. (2) Observation of bone tissue and morphology, the bone tissue and morphology changes were observed by tibial HE staining, mainly testing the trabecular volume ratio (bone volume/tissue volume, BV/TV) and the number of trabecular bone (trabecular bone number, Tb. N) and trabecular separation (trabecular separation, Tb. And sp) were the quantitative evaluation index. (3) For the determination of biological indicators ALP, StrACP, OC, and E 2 in mouse serum, blood was collected by enucleation method, and by kit and enzyme-linked adsorption assay.

[3] = system: platelet aggregation induced by ADP; experiment: Antiplatelet aggregation effect, ADP-induced, turbidimetry in platelet-rich plasma; type: cell-based; conditions: Homo sapiens, 2 min; platelet rich plasma of healthy subjects; 25 μL of 50 nM compound solution in 225 μL plasma, 37° C. 2 min; ADP final 2 μM; read-out: The rate of platelet aggregation inhibition
Procedure: • 1) Experimental material: ADP, epinephrine, collagen (bilBio) • 2) Experimental method: blood samples provided by healthy subjects were mixed blood with 3.8% citric acid solution and centrifuged at 160 r/min to obtain platelet-rich plasma. To calibrate the data, the obtained platelet-rich plasma was further centrifuged at 2000 r/min to obtain platelet-poor plasma, stored in a −20° C. refrigerator. Testing was performed using Born I's turbiometry. 225 μL of platelet rich plasma was added to the reaction cup, the embodiment compound was configured as 50 nM solution (25 m M Tris-acetate and 120 m M N a Cl), 25 μL of embodiment compound solution was added and after incubation at 37° C. for 2 min, 5 μL of ADP (final concentration 2 μM) was added for platelet aggregation induction. To assess the degree of platelet aggregation, the maximum absorbance value took the data after ADP, thus calculating the inhibition rate of ADP-induced platelet aggregation by each embodiment compound. According to the data in Table 6 below, the compounds of the present application embodiment all have a good effect of inhibiting the platelet aggregation induced by ADP.

[4] = system: rats with hypoxic pulmonary hypertension; experiment: In vivo test in rats with hypoxic pulmonary hypertension; parameters: species or system rat; conditions: SD male rats, low pressure low oxygen chamber, 5 mg/kg, after four weeks, vs model group
Procedure: • 1) Experimental instruments and materials, HX-200 animal ventilator, and SD male rats used in the experiment were all purchased from Yangzhou University. All control groups were reared in a normal environment, and the administration intervention and model groups were reared in the low pressure low oxygen chamber (air pressure 50 kPa, oxygen concentration 10%). • 2) Compound 15 was dissolved using DMSO/solutol/water (10/10/80). In the intervention group, the dose was 5 mg/kg, all rats were weighed weekly, survival was recorded, and pulmonary artery pressure was measured after four weeks. Rats (3 ml/kg) were anesthetized with chloral hydrate (100 g/L), fixed in the supine position, tracheotomy, and breathing assisted with a small animal ventilator (frequency 60 beats/min, 5 ml, breath ratio 4:5). Free the left third rib, a catheter connecting one end to the tension transducer was sent to the pulmonary artery, and the mean pulmonary artery pressure (mP AP) was recorded through the BL-420E Biofunction experimental system. […] The results of FIG. 1 show the effect of beraprost derivative compound 15.

[5] = system: renal tubular epithelial cells in acute renal failure; experiment: Renal tubular protective effect of acute renal failure (co-culture with isolated cells); type: cell-based, rat; conditions: renal tubular epithelial cells from acute renal failure rats, 200 μg/mL
Description: • 1) Test materials, glycerol (MacLean Company); CCK-8 kit, Annexin V-PE cell apoptosis detection kit, superoxide dismutase activity detection kit, malondialdehyde detection kit (Biyun Biotech); first anti-cysteine aspartate protease, caspase 3 and 9, B lymphocytoma-2 gene, Bcl-2-associated X protein (BAX, anti-rabbit), TGF-β 1, smad 3 (abcam, USA). Protein gel imager, microplate reader, and flow cytometer (Beckman Coulter, Type CytoFLEX). Clean-grade SD rats were purchased from Yangzhou University. • 2) Test method, the model of acute renal failure of rat hind limb injection was used. After 24 h, the level of BUN and Cr increased in rat serum, vascular necrosis of renal interstitium, and inflammatory cell infiltration were regarded as successful model establishment. Some renal tissues from model animals were taken for in vitro culture, renal tubular epithelial cells were isolated and identified, and test drug co-culture (0-24 hours) was added. Changes of various biochemical indicators and apoptosis were determined. […] Conclusion Test compounds can promote tubular epithelial cells proliferation, inhibit apoptosis, inhibit oxidative stress, and slow the damage of renal tubular epithelial cells by inhibiting the expression of proapoptotic proteins.

[6] = tibial HE staining, ovariectomised C57BL/6 mice, gavage 28 d

SMILES: CC#CCC(C)[C@@H](O)/C=C/[C@H]1[C@@H]2c3cccc(CCCC(=O)OCC4CCCC(CO[N+](=O)[O-])C4)c3O[C@@H]2C[C@@H]1O (stereo partly shown) [Compound 15]
- 120 min NO^2− [1]: 12.7 µM
- ALP ([2]; mouse serum, day 28): 19 ± 2.2 King-Armstrong unit/100 mL
- E2 ([2]; mouse serum, day 28): 35 ± 4 ng/mL
- OC ([2]; mouse serum, day 28): 1.7 ± 0.2 ng/mL
- Str ACP ([2]; mouse serum, day 28): 41 ± 3.6 U/L
- BV/VT [2, 6]: 0.29 ± 0.05
- Tb · N [2, 6]: 7.5 ± 0.6
- Tb · sp [2, 6]: 152 ± 15 μm
- inhibition at 0.005 µM [3]: 92%
- mean pulmonary artery pressure (mPAP) [4]: lower compared with the model group
- B AX protein level [5]: 0.32 ± 0.12
- B CL2 protein level [5]: 0.56 ± 0.11
- MDA [5]: 489 ± 38 Nnol/g protein
- S mad3 protein level [5]: 0.19 ± 0.07
- SOD [5]: 1016 ± 117 U/g egg white
- T GF-β1 protein level [5]: 0.24 ± 0.05
- The rate of apoptosis [5]: 9 ± 0.7%
- caspase3 protein level [5]: 0.28 ± 0.06
- caspase9 protein level [5]: 0.48 ± 0.1
